Here are results for 37 molecules from patent US6727246B2, “1-(aminoalkyl)-3-sulfonylindole-and-indazole derivatives as 5-hydroxytryptamine-6 ligands” (Wyeth, priority 2002, dated 2004).

Read-outs that look alike come from different tables or passages of the source.

The target in data set [1] is T1, human cloned 5-HT6 receptors (Homo sapiens, UniProt P50406).
T1 construct: expressed in transfected cells; host or cells: Hela cells (membrane preparation)
Kind of data set: 5-HT6 binding affinity, [3H]-LSD displacement on membranes of Hela cells expressing the cloned receptor. Particulars: for inhibition at 1 µM: read-out: % Inhibition at 1 μM.

[2] abbreviates: [3H]-LSD 3.0 nM, Hela cell membranes, 120 min at room temperature, read-out: 5-HT6 Binding Ki.

T1 sequence (P50406 whole entry): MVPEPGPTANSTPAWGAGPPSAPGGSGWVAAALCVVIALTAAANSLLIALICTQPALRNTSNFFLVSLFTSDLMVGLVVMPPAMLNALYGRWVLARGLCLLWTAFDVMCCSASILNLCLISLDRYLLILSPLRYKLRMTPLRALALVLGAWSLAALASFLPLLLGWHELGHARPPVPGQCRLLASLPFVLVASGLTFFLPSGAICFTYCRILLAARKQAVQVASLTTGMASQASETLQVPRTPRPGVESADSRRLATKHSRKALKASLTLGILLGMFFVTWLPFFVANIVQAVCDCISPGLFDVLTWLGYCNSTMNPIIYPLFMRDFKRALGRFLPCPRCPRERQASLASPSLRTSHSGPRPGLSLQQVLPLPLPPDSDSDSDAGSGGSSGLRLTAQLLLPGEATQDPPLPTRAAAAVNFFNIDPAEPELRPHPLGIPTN

As to `CN(C)CCn1cc(S(=O)(=O)c2ccccc2)c2ccccc21` [Example 3], the affinity in data set [1] corresponds to a Ki of 20 nM. Take `NCCCn1cc(S(=O)(=O)c2ccccc2)c2ccccc21` [Example 5, 3-[3-(phenylsulfonyl)-1H-indol-1-yl]propan-1-amine]: in data set [1] (setting [2]), the inhibition constant (Ki) was 92 nM.

For `CN(C)CCCCn1cc(S(=O)(=O)c2ccccc2)c2ccccc21` [Example 7], the melting point is 184 to 187 °C. For the same molecule, in data set [1] (setting [2]), the Ki worked out at 160 nM. The corresponding values for `CN(C)CCn1cc(S(=O)(=O)c2ccccc2)c2cc(C#N)ccc21` [Example 8, 1-[2-(dimethylamino)ethyl]-3-(phenylsulfonyl)-1H-indole-5-carbonitrile] are 280 °C (dec.) and 45 nM. In turn, `CN(C)CCn1cc(S(=O)(=O)c2ccccc2)c2c(F)cccc21` [Example 9, N,N-dimethyl-N-{2-[4-fluoro-3-(phenylsulfonyl)-1H-indol-1-yl]ethyl}amine] displayed a melting point of 201 to 203 °C. The molecule also had a Ki in data set [1] of 98 nM. Take `CN(C)CCn1cc(S(=O)(=O)c2ccccc2)c2cccc(Cl)c21` [Example 10, N,N-dimethyl-N-{2-[7-chloro-3-(phenylsulfonyl)-1H-indol-1-yl]-ethyl}amine]: the melting point was in the range of 240 to 242 °C. Besides, in data set [1] (setting [2]), the inhibitory constant (Ki) turned out to be 98 nM. The corresponding values for `CN(C)CCn1cc(S(=O)(=O)c2ccccc2)c2c(Cl)cccc21` [Example 11, N,N-dimethyl-N-{2-[4-chloro-3-(phenylsulfonyl)-1H-indol-1-yl]-ethyl}amine] are 209 to 211 °C and 134 nM. `Cc1cccc2c1c(S(=O)(=O)c1ccccc1)cn2CCN(C)C` [Example 12, N,N-dimethyl-N-{2-[4-methyl-3-(phenylsulfonyl)-1H-indol-1-yl]ethyl}amine] yielded a melting point of 220 to 221 °C. In addition, the Ki in data set [1] (setting [2]) turned out to be 183 nM.

In turn, `CCc1cccc2c(S(=O)(=O)c3ccccc3)cn(CCN(C)C)c12` [Example 13, N,N-dimethyl-N-{2-[7-ethyl-3-(phenylsulfonyl)-1H-indol-1-yl]ethyl}amine] had a melting point of 213 to 216 °C. Moreover, affinity in data set [1] was put at a Ki of 65 nM. On to `CN(C)CCn1cc(S(=O)(=O)c2ccccc2)c2cccc(C#N)c21` [Example 14, 1-[2-(dimethylamino)ethyl]-3-(phenylsulfonyl)-1H-indole-7-carbonitrile], for which the melting point fell in the range of 134 to 136 °C. The Ki in data set [1] (setting [2]) was determined as 755 nM. For the same molecule, the inhibition at 1 µM in data set [1] is 35%. As to `CN(C)CCCn1cc(S(=O)(=O)c2ccccc2)c2ccccc21` [Example 15, N,N-dimethyl-3-[3-(phenylsulfonyl)-1H-indol-1-yl]propan-1-amine], the melting point lay in the range of 207 to 209 °C. In data set [1] (setting [2]), the Ki was 169 nM.

As to `COc1ccc2c(c1)c(S(=O)(=O)c1ccccc1)cn2CCN(C)C` [Example 20], the melting point fell in the range of 214 to 216 °C. In addition, in data set [1], the Ki was found to be 23 nM and the inhibition at 1 µM is 88%. With `COc1ccc2c(c1)c(S(=O)(=O)c1ccccc1)cn2CCN` [Example 21, 2-[5-methoxy-3-(phenylsulfonyl)-1H-indol-1-yl]ethylamine], the melting point fell in the range of 198 to 201 °C. Also, in data set [1] (1 μM test compound, displacement of [3H]-LSD), the inhibition at 1 µM came out at 86%.

`COc1cccc2c(S(=O)(=O)c3ccccc3)cn(CCN(C)C)c12` [Example 23] came in with a melting point of 236 to 238 °C. In data set [1], the affinity corresponds to a Ki of 25 nM. Molecule `Cc1c(S(=O)(=O)c2ccccc2)c2ccccc2n1CCN(C)C` [Example 24, N,N-dimethyl-N-{2-[2-methyl-3-(phenylsulfonyl)-1H-indol-1-yl]ethyl}amine] gave a melting point of 258 to 260 °C. For the same molecule, the Ki in data set [1] stood at 18 nM. Regarding `CN(C)CCn1cc(S(=O)(=O)c2cccc(F)c2)c2ccccc21` [Example 25], the melting point was 210 to 211 °C. Moreover, the inhibition constant (Ki) in data set [1] (setting [2]) amounted to 13 nM.

`CN(C)CCn1cc(S(=O)(=O)c2cccc3ccccc23)c2ccccc21` [Example 26] returned a melting point of 239 to 241 °C. Further, the Ki in data set [1] (setting [2]) amounted to 4 nM. As for `CN(C)CCn1cc(S(=O)(=O)c2ccccc2)c2ccc(-c3ccccc3)cc21` [Example 27], the Ki in data set [1] (setting [2]) stood at 23 nM. For the molecule `CN(C)CCn1cc(S(=O)(=O)Cc2ccccc2)c2ccccc21` [Example 31], the melting point lay within 219 to 220 °C. Moreover, the Ki in data set [1] (setting [2]) was found to be 1010 nM. The corresponding values for `O=S(=O)(Cc1ccccc1)c1cn(CCN2CCCCC2)c2ccccc12` [Example 32] are 223 to 225 °C and 644 nM. Take `CN(C)CCn1nc(S(=O)(=O)c2ccccc2)c2ccccc21` [Example 35]: the Ki in data set [1] (setting [2]) is 74 nM. Molecule `NCCn1nc(S(=O)(=O)c2ccccc2)c2ccccc21` [Example 36, 2-[3-(phenylsulfonyl)-1H-indazol-1-yl]ethylamine] registered a melting point of 208 to 209 °C. Further, in data set [1] (setting [2]), the Ki was determined as 44 nM.

For the molecule `CN(C)CCn1nc(S(=O)(=O)c2cccc(F)c2)c2ccccc21` [Example 37], the melting point lay within 192 to 194 °C. Also, in data set [1] (setting [2]), the inhibition constant Ki stood at 55 nM. In the case of `COc1ccc2c(c1)c(S(=O)(=O)c1ccccc1)cn2CCNCc1ccccc1` [Example 39], the inhibition constant Ki in data set [1] (setting [2]) came to 59 nM. With `NCCn1cc(S(=O)(=O)c2ccccc2)c2ccccc21` [Example 40, 2-[3-(phenylsulfonyl)-1H-indol-1-yl]ethylamine], the melting point lay in the range of 220 to 221 °C. For the same molecule, the inhibition constant Ki in data set [1] (setting [2]) was found to be 25 nM. The corresponding values for `NCCn1cc(S(=O)(=O)c2ccccc2)c2ccc(Cl)cc21` [Example 44, 2-[6-chloro-3-(phenylsulfonyl)-1H-indol-1-yl]ethylamine] are 200 to 206 °C and 141 nM. Take `Cc1ccc(S(=O)(=O)c2cn(CCN)c3ccccc23)cc1` [Example 45]: the melting point was 178 to 183 °C. Moreover, the Ki in data set [1] (setting [2]) came out at 25 nM. The corresponding values for `Cn1ccnc1S(=O)(=O)c1cn(CCN)c2ccccc12` [Example 46] are 158 to 160 °C and 573 nM.

For `CN(C)CCn1cc(S(=O)(=O)c2ccccc2)c2cc(F)ccc21` [Example 47], the melting point fell in the range of 103 to 104 °C. The Ki in data set [1] is 44 nM. In turn, `COc1ccc2c(S(=O)(=O)c3ccccc3)cn(CCN(C)C)c2c1` [Example 48] yielded a melting point of 121 to 122 °C. The affinity in data set [1], expressed as Ki, was 23 nM. Molecule `Cc1ccc2c(S(=O)(=O)c3ccccc3)cn(CCN(C)C)c2c1` [Example 49] yielded a melting point of 131 to 132 °C. Besides, the Ki in data set [1] (setting [2]) was determined as 51 nM. Take `CN(C)CCn1cc(S(=O)(=O)c2ccccc2)c2ccc(F)cc21` [Example 50]: the melting point lay within 100 to 102 °C. This molecule came in with an inhibitory constant (Ki) in data set [1] of 46 nM.

As for `CN(C)CCn1cc(S(=O)(=O)c2ccccc2)c2ccc(Cl)cc21` [Example 51], the melting point lay in the range of 104 to 106 °C. The affinity in data set [1] corresponds to a Ki of 42 nM. The matching figures for `Cc1ccc(S(=O)(=O)c2cn(CCN(C)C)c3ccccc23)cc1` [Example 52]: above 250 °C and 57 nM. For `COc1cccc2c1c(S(=O)(=O)c1ccccc1)cn2CCN(C)C` [Example 53], the melting point was in the range of 238 to 240 °C. The Ki in data set [1] (setting [2]) amounted to 152 nM. As for `CN(C)CCn1cc(S(=O)(=O)c2ccccc2OC(F)(F)F)c2ccccc21` [Example 57], the Ki in data set [1] (setting [2]) was determined as 16 nM. For `CN(C)CCn1cc(S(=O)(=O)c2c(Cl)nc3sccn23)c2ccccc21` [Example 58], the melting point lay in the range of 138 to 140 °C. In data set [1] (setting [2]), the Ki turned out to be 6 nM.
